IC50 data for 13 compounds are collected here from patent publication US20260356856A1, “KRAS G12S AND G12C INHIBITORS” (MIRATI THERAPEUTICS, INC., priority 2023, published 2026).

Structures are written as SMILES.

In test [1] the target is T1, KRas-mediated phosphorylation of ERK in A549 cells (Homo sapiens, UniProt P01116, G12S).
T1 construct: pERK HTRF read-out
Briefly: Inhibition of KRas-mediated phosphorylation of ERK (HTRF), A549 cells. In kind it is cell-based. Conditions: HTRF pERK, 3 h incubation. For orientation: TR-FRET usually uses a lanthanide donor and a delayed reading to cut background.

In test [2] the target is T2, KRas WT (Homo sapiens, UniProt P01116).
T2 construct: Biotinylated KRas (corresponding to amino acids 1-169, produced at Accelegan Inc.); biotin (biotinylated); purchased Accelegan Inc
T2 sequence (P01116 1-169 isoform P01116-2): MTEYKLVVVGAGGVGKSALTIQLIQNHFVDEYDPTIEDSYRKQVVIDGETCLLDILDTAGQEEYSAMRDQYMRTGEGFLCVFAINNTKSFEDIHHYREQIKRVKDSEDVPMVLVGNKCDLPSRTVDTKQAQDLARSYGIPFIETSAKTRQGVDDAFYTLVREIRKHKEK
Briefly: KRas binding assay, TR-FRET displacement of Cy5 labelled tracer. Conditions: 60-minute incubation at room temperature, 1% DMSO, pH 7.5. In outline:
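Room-temperature incubation (60 min) of compound with biotinylated KRas 1-169, tracer and Tb-streptavidin preceded the TR-FRET read. Final DMSO was 1%; buffer pH 7.5. Percent-of-control values went into a 4-parameter equation to give IC50.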

Test [3] deals with T3, KRas G12S (Homo sapiens, UniProt P01116, G12S).
T3 construct: Biotinylated KRas (corresponding to amino acids 1-169, produced at Accelegan Inc.); biotin (biotinylated); purchased Accelegan Inc
T3 sequence (P01116 1-169 isoform P01116-2 G12S): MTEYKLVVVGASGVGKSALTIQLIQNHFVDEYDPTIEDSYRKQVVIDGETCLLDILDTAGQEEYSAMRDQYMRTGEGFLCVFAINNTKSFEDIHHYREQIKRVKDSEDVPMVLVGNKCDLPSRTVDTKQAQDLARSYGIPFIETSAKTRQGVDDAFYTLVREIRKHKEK
Described as above. Conditions: 60-minute incubation at room temperature, 1% DMSO, pH 7.5. The method, boiled down:
(§1)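 Final conditions: 1% DMSO, pH 7.5 HEPES buffer, 60 min, room temperature. Protein: biotin-KRas 1-169 with terbium streptavidin. Output: IC50, four-parameter fit of POC.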

The target in test [4] is T4, KRas G12C (Homo sapiens, UniProt P01116, G12C).
T4 construct: Biotinylated KRas (corresponding to amino acids 1-169, produced at Accelegan Inc.); biotin (biotinylated); purchased Accelegan Inc
T4 sequence (P01116 1-169 isoform P01116-2 G12C): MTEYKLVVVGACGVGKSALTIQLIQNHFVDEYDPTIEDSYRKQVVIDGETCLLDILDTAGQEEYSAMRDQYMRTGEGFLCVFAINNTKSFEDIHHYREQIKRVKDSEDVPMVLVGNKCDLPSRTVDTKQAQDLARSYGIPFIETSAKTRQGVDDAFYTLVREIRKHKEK
Described as above. Conditions: 60-minute incubation at room temperature, 1% DMSO, pH 7.5. In outline:
as §1

In test [5] the target is T5, KRas-mediated phosphorylation of ERK in MKN1 cells (Homo sapiens, UniProt P01116).
T5 construct: pERK HTRF read-out
T5 sequence (P01116 1-188 isoform P01116-2): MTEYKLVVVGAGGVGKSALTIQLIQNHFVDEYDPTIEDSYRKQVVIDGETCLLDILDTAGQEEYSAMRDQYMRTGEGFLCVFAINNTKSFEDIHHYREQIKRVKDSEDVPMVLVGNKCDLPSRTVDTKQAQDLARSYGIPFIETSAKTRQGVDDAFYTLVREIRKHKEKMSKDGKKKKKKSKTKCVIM
As to the kind of experiment: Inhibition of KRas-mediated phosphorylation of ERK (HTRF), MKN1 cells. The format is cell-based. Conditions: MKN1 cells (KRas WT); HTRF pERK; 3 h incubation. As for the experimental part: Inhibition of KRas Phosphorylation of ERK (HTRF) by Exemplary Compounds of Formula (Ia) or (Ib)
Cisbio HTRF Advanced pERK Assay Catalog #64AERPEH • Cells: MKN1, PSN1 • Procedure: • 1. Day 1: Seed 6,000 cells/well −25 μl/well in 384-well white solid bottom plate; RPM1_10% FBS. Incubate overnight at 37 °C/5% CO2. • 2.

T1 sequence (P01116 1-188 isoform P01116-2 G12S): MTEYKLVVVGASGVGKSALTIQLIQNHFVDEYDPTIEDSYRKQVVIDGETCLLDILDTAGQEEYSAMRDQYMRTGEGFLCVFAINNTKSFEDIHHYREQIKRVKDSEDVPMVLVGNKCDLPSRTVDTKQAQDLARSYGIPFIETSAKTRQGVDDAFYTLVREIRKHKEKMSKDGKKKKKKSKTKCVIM

The term IC50 denotes the concentration needed to halve the response being measured. Read a low IC50 as inhibition by little substance. For the compound `Cc1ccn(C(=O)C2CCCCN(c3nc(OC[C@@]45CCCN4C[C@H](F)C5)nc4c(F)c(-c5ccc(F)c6sc(N)c(C#N)c56)c(Cl)cc34)CC2)n1` (stereo partly drawn) [Example 137, 2-amino-4-(6-chloro-8-fluoro-2-(((2R,7aS)-2-fluorotetrahydro-1H-pyrrolizin-7a(5H)-yl)methoxy)-4-(4-(3-methyl-1H-pyrazole-1-carbonyl)azocan-1-yl)quinazolin-7-yl)-7-fluorobenzo[b]thiophene-3-carbonitrile], the IC50 in test [1] was found to be 29 nM; in test [2] it was 44 nM; in test [3], 10 nM; in test [4], 13 nM; in test [5] it was 142 nM.
For `CCc1c(F)ccc2cc(O)cc(-c3ncc4c(N5C[C@H]6C[C@H](C(=O)n7ccc(C)n7)C[C@H]6C5)nc(OC[C@@]56CCCN5C[C@H](F)C6)nc4c3F)c12` [Example 160, ((3aR,5R,6aS)-2-(7-(8-ethyl-7-fluoro-3-hydroxynaphthalen-1-yl)-8-fluoro-2-(((2R,7aS)-2-fluorotetrahydro-1H-pyrrolizin-7a(5H)-yl)methoxy)pyrido[4,3-d]pyrimidin-4-yl)octahydrocyclopenta[c]pyrrol-5-yl)(3-methyl-1H-pyrazol-1-yl)methanone], in that order: 3380 nM, 258 nM, 461 nM, 1790 nM and 3690 nM.
For `CCc1c(F)ccc2cc(O)cc(-c3ncc4c(N5CC6C(CC(=O)n7ccc(C)n7)C6C5)nc(OC[C@@]56CCCN5C[C@H](F)C6)nc4c3F)c12` (stereo partly drawn) [Example 120, 2-(3-(7-(8-ethyl-7-fluoro-3-hydroxynaphthalen-1-yl)-8-fluoro-2-(((2R,7aS)-2-fluorotetrahydro-1H-pyrrolizin-7a(5H)-yl)methoxy)pyrido[4,3-d]pyrimidin-4-yl)-3-azabicyclo[3.1.0]hexan-6-yl)-1-(3-methyl-1H-pyrazol-1-yl) ethan-1-one], in that order: 229 nM, 1210 nM, 186 nM, 142 nM and 5380 nM.
The like results for `CCc1c(F)ccc2cc(O)cc(N3CCc4c(nc(OC[C@@]56CCCN5C[C@H](F)C6)nc4N4CCCCC(C(=O)n5ccc(C)n5)C4)C3)c12` (stereo partly drawn) [Example 147, (1-(7-(8-ethyl-7-fluoro-3-hydroxynaphthalen-1-yl)-2-(((2R,7aS)-2-fluorotetrahydro-1H-pyrrolizin-7a(5H)-yl)methoxy)-5,6,7,8-tetrahydropyrido[3,4-d]pyrimidin-4-yl)azepan-3-yl)(3-methyl-1H-pyrazol-1-yl)methanone] were, in that order, 1210 nM, 45 nM, 37 nM, 16 nM and 45 nM.
Consider `CCc1c(F)ccc2cc(O)cc(-c3ncc4c(N5CC6CCC(C(=O)n7ccc(C)n7)C6C5)nc(OC[C@@]56CCCN5C[C@H](F)C6)nc4c3F)c12` (stereo partly drawn) [Example 104, (2-(7-(8-ethyl-7-fluoro-3-hydroxynaphthalen-1-yl)-8-fluoro-2-(((2R,7aS)-2-fluorotetrahydro-1H-pyrrolizin-7a(5H)-yl)methoxy)pyrido[4,3-d]pyrimidin-4-yl)octahydrocyclopenta[c]pyrrol-4-yl)(3-methyl-1H-pyrazol-1-yl)methanone], for which the IC50 stood at 1580 nM in test [1]; 77 nM in test [2]; 176 nM in test [3]; 295 nM in test [4]; 931 nM in test [5].
As for `CCc1c(F)ccc2cc(O)cc(-c3ncc4c(N5CCCC(C(=O)n6ccc(C)n6)CC5)nc(OC[C@@H]5CCCN5C)nc4c3F)c12` (stereo partly drawn) [Example 168, (1-(7-(8-ethyl-7-fluoro-3-hydroxynaphthalen-1-yl)-8-fluoro-2-(((S)-1-methylpyrrolidin-2-yl)methoxy)pyrido[4,3-d]pyrimidin-4-yl)azepan-4-yl)(3-methyl-1H-pyrazol-1-yl)methanone], the IC50 stood at 245 nM in test [1]; 1380 nM in test [2]; 72 nM in test [3]; 384 nM in test [4]; 8690 nM in test [5].
For `CCc1c(F)ccc2cc(O)cc(-c3ncc4c(N5CCC(C)(C(=O)n6ccc(C)n6)C5)nc(OC[C@@]56CCCN5C[C@H](F)C6)nc4c3F)c12` (stereo partly drawn) [Example 94, (1-(7-(8-ethyl-7-fluoro-3-hydroxynaphthalen-1-yl)-8-fluoro-2-(((2R,7aS)-2-fluorotetrahydro-1H-pyrrolizin-7a(5H)-yl)methoxy)pyrido[4,3-d]pyrimidin-4-yl)-3-methylpyrrolidin-3-yl)(3-methyl-1H-pyrazol-1-yl)methanone], in that order: 1070 nM, 306 nM, 232 nM, 15 nM and 6200 nM.
For `CCc1c(F)ccc2cc(O)cc(N3CCc4c(nc(OC[C@@]56CCCN5C[C@H](F)C6)nc4N(C)CCCC(=O)n4ccc(C)n4)C3)c12` [Example 194, 4-((7-(8-ethyl-7-fluoro-3-hydroxynaphthalen-1-yl)-2-(((2R,7aS)-2-fluorotetrahydro-1H-pyrrolizin-7a(5H)-yl)methoxy)-5,6,7,8-tetrahydropyrido[3,4-d]pyrimidin-4-yl)(methyl)amino)-1-(3-methyl-1H-pyrazol-1-yl) butan-1-one], in that order: 130 nM, 209 nM, 7 nM, 4 nM and 766 nM.
The like results for `CCc1c(F)ccc2cc(O)cc(-c3ncc4c(N5CC6(C(=O)n7ccc(C)n7)CCCC5C6)nc(OC[C@@]56CCCN5C[C@H](F)C6)nc4c3F)c12` (stereo partly drawn) [Example 87, (6-(7-(8-ethyl-7-fluoro-3-hydroxynaphthalen-1-yl)-8-fluoro-2-(((2R,7aS)-2-fluorotetrahydro-1H-pyrrolizin-7a(5H)-yl)methoxy)pyrido[4,3-d]pyrimidin-4-yl)-6-azabicyclo[3.2.1]octan-1-yl)(3-methyl-1H-pyrazol-1-yl)methanone] were, in that order, greater than 10000 nM, 1580 nM, 1680 nM, 365 nM and 4060 nM.
For `CCc1c(F)ccc2cc(O)cc(-c3ncc4c(N5CC(C(=O)n6ccc(C)n6)C(C)(C)C5)nc(OC[C@@]56CCCN5C[C@H](F)C6)nc4c3F)c12` (stereo partly drawn) [Example 101, (1-(7-(8-ethyl-7-fluoro-3-hydroxynaphthalen-1-yl)-8-fluoro-2-(((2R,7aS)-2-fluorotetrahydro-1H-pyrrolizin-7a(5H)-yl)methoxy)pyrido[4,3-d]pyrimidin-4-yl)-4,4-dimethylpyrrolidin-3-yl)(3-methyl-1H-pyrazol-1-yl)methanone], the 50% inhibitory concentration (IC50) is greater than 10000 nM in test [1]; 716 nM in test [2]; 934 nM in test [3]; 784 nM in test [4]; 5550 nM in test [5].
Take `CCc1c(F)ccc2cc(O)cc(-c3ncc4c(N5CCCC6CC6(C(=O)n6ccc(C)n6)CC5)nc(OC[C@@]56CCCN5C[C@H](F)C6)nc4c3F)c12` (stereo partly drawn) [Example 117, (4-(7-(8-ethyl-7-fluoro-3-hydroxynaphthalen-1-yl)-8-fluoro-2-(((2R,7aS)-2-fluorotetrahydro-1H-pyrrolizin-7a(5H)-yl)methoxy)pyrido[4,3-d]pyrimidin-4-yl)-4-azabicyclo[6.1.0]nonan-1-yl)(3-methyl-1H-pyrazol-1-yl)methanone]: the IC50 in test [1] stood at 4050 nM; in test [2], 68 nM; in test [3], 158 nM; in test [4] it was 129 nM; in test [5] it was 333 nM.
For `Cc1ccn(C(=O)[C@@H]2[C@@H]3CCN(c4nc(OC[C@@]56CCCN5C[C@H](F)C6)nc5c(F)c(-c6ccc(F)c7sc(N)c(C#N)c67)c(Cl)cc45)C[C@@H]32)n1` [Example 179, 2-amino-4-(6-chloro-8-fluoro-2-(((2R,7aS)-2-fluorotetrahydro-1H-pyrrolizin-7a(5H)-yl)methoxy)-4-((1S,6R)-7-(3-methyl-1H-pyrazole-1-carbonyl)-3-azabicyclo[4.1.0]heptan-3-yl)quinazolin-7-yl)-7-fluorobenzo[b]thiophene-3-carbonitrile], in that order: 167 nM, 26 nM, 42 nM, 64 nM and 110 nM.
For `CCc1c(F)ccc2cc(O)cc(-c3ncc4c(N5C[C@H]6CC(C(=O)n7ccc(C)n7)C[C@H]6C5)nc(OC[C@@]56CCCN5C[C@H](F)C6)nc4c3F)c12` (stereo partly drawn) [Example 116, ((3aR,6aS)-2-(7-(8-ethyl-7-fluoro-3-hydroxynaphthalen-1-yl)-8-fluoro-2-(((2R,7aS)-2-fluorotetrahydro-1H-pyrrolizin-7a(5H)-yl)methoxy)pyrido[4,3-d]pyrimidin-4-yl)octahydrocyclopenta[c]pyrrol-5-yl)(3-methyl-1H-pyrazol-1-yl)methanone], in that order: 35 nM, 3480 nM, 11 nM, 111 nM and 4440 nM.
